The target of one assay is human GLP-1R (Homo sapiens, UniProt P43220). Briefly: GLP-1R Cell Assay 1: cAMP Hunter CHO-K1 GLP1R Gs cell line, HitHunter cAMP assay. It is filed as cell-based. The following applies: Table 2; cAMP Hunter CHO-K1 GLP1R Gs cells; percent activity normalized to Exendin-4. Summed up: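 Luminescent enzyme-fragment-complementation immunoassay quantified cellular cAMP after 30-60 min compound exposure at 37 °C in HBSS/10 mM HEPES. Data from duplicate runs were normalised to Exendin-4 and fitted nonlinearly for EC50.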
human GLP-1R, sequence (P43220 24-463): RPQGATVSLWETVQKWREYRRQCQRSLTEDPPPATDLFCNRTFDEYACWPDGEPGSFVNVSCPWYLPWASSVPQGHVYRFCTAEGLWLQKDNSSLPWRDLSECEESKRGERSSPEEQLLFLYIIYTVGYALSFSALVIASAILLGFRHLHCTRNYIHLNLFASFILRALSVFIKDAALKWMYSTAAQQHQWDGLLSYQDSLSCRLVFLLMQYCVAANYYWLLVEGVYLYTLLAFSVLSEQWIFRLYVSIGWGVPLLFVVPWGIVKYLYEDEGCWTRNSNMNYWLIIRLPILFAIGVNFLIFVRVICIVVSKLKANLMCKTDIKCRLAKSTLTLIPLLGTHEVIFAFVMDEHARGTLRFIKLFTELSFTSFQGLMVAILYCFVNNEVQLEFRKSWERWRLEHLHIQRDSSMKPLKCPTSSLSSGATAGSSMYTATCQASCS
A general note: Changes in cAMP serve as a functional read-out for many G protein-coupled receptors.
As a reminder, the EC50 is the concentration that produces a half-maximal response. A higher EC50 goes with a need for much substance. For `N#Cc1ccc(COc2nn(C3CCN(Cc4nc5ccc(C(=O)O)cc5n4C[C@@H]4CCO4)CC3)cc2F)c(F)c1` [Compound 108, (S)-2-((4-(3-((4-cyano-2-fluorobenzyl)oxy)-4-fluoro-1H-pyrazol-1-yl)piperidin-1-yl)methyl)-1-(oxetan-2-ylmethyl)-1H-benzo[d]imidazole-6-carboxylic acid], a half-maximal response (EC50) required 4.15 nM.

In the case of `N#Cc1cccc2c1CCN(c1cccc(N3CCN(Cc4nc5ccc(C(=O)O)cc5n4C[C@@H]4CCO4)CC3)n1)CC2` [Compound 79, (S)-2-((4-(6-(6-cyano-1,2,4,5-tetrahydro-3H-benzo[d]azepin-3-yl)pyridin-2-yl)piperazin-1-yl)methyl)-1-(oxetan-2-ylmethyl)-1H-benzo[d]imidazole-6-carboxylic acid], a half-maximal effect (EC50) was put at 206 nM.

The compound `O=C(O)c1ccc2nc(CN3CCN(c4cccc(NCc5ccccc5)n4)CC3)n(C[C@@H]3CCO3)c2c1` [Compound 55, (S)-2-((4-(6-(benzylamino)pyridin-2-yl)piperazin-1-yl)methyl)-1-(oxetan-2-ylmethyl)-1H-benzo[d]imidazole-6-carboxylic acid] returned an EC50 of 42.3 nM.

With `N#Cc1ccc(Cn2ncc3ccc(N4CCN(Cc5nc6ccc(C(=O)O)cc6n5C[C@@H]5CCO5)CC4)nc32)c(F)c1` [Compound 30, (S)-2-((4-(1-(4-cyano-2-fluorobenzyl)-1H-pyrazolo[3,4-b]pyridin-6-yl)piperazin-1-yl)methyl)-1-(oxetan-2-ylmethyl)-1H-benzo[d]imidazole-6-carboxylic acid], the EC50 is 16.3 nM.

As to `O=C(O)c1ccc2nc(CN3CCN(c4cccc(OCCC5CCCCC5)n4)CC3)n(C[C@@H]3CCO3)c2c1` [Compound 44, (S)-2-((4-(6-(2-cyclohexylethoxy)pyridin-2-yl)piperazin-1-yl)methyl)-1-(oxetan-2-ylmethyl)-1H-benzo[d]imidazole-6-carboxylic acid], a half-maximal effect (EC50) was put at 82.1 nM.

The compound `O=C(O)c1ccc2nc(CN3CCN(c4cccc(OCc5ccc6ccccc6c5)n4)CC3)n(C[C@@H]3CCO3)c2c1` [Compound 70, (S)-2-((4-(6-(naphthalen-2-ylmethoxy)pyridin-2-yl)piperazin-1-yl)methyl)-1-(oxetan-2-ylmethyl)-1H-benzo[d]imidazole-6-carboxylic acid] showed an EC50 of 1.19 nM.

The compound `N#Cc1ccc2c(c1)CCN(c1cccc(N3CCN(Cc4nc5ccc(C(=O)O)cc5n4C[C@@H]4CCO4)CC3)n1)C2` [Compound 60, (S)-2-((4-(6-(6-cyano-3,4-dihydroisoquinolin-2(1H)-yl)pyridin-2-yl)piperazin-1-yl)methyl)-1-(oxetan-2-ylmethyl)-1H-benzo[d]imidazole-6-carboxylic acid] displayed an EC50 of 8.18 nM.

`N#Cc1cc(F)c2c(c1)CCN(c1cccc(C3CCN(Cc4nc5ccc(C(=O)O)cc5n4C[C@@H]4CCO4)CC3)n1)C2` [Compound 13, (S)-2-((4-(6-(6-cyano-8-fluoro-3,4-dihydroisoquinolin-2(1H)-yl)pyridin-2-yl)piperidin-1-yl)methyl)-1-(oxetan-2-ylmethyl)-1H-benzo[d]imidazole-6-carboxylic acid] registered an EC50 of 0.788 nM.

Compound `O=C(O)c1ccc2nc(CN3CCC(n4nccc4COc4ccccc4)CC3)n(C[C@@H]3CCO3)c2c1` (single isomer, unassigned) [Compound 26-P2] came in with an EC50 of over 500 nM.

Turning to `C[C@@H]1COC[C@H](N2CCC(c3cccc(OCc4ccc(C#N)cc4F)n3)CC2)c2nc3ccc(C(=O)O)cc3n21` [Compound 95, (1R,5R)-5-(4-(6-((4-cyano-2-fluorobenzyl)oxy)pyridin-2-yl)piperidin-1-yl)-1-methyl-1,2,4,5-tetrahydrobenzo[4,5]imidazo[1,2-d][1,4]oxazepine-9-carboxylic acid], the EC50 worked out at 46.6 nM.

In turn, `O=C(O)c1ccc2nc(CN3CCN(c4cccc(OCc5cccnc5)n4)CC3)n(C[C@@H]3CCO3)c2c1` [Compound 53, (S)-1-(oxetan-2-ylmethyl)-2-((4-(6-(pyridin-3-ylmethoxy)pyridin-2-yl)piperazin-1-yl)methyl)-1H-benzo[d]imidazole-6-carboxylic acid] gave an EC50 of 7.7 nM.

On to `NC(=O)c1ccc2c(c1)CCN(c1cccc(N3CCN(Cc4nc5ccc(C(=O)O)cc5n4C[C@@H]4CCO4)CC3)n1)C2` [Compound 59, (S)-2-((4-(6-(6-carbamoyl-3,4-dihydroisoquinolin-2(1H)-yl)pyridin-2-yl)piperazin-1-yl)methyl)-1-(oxetan-2-ylmethyl)-1H-benzo[d]imidazole-6-carboxylic acid], for which the EC50 came out at 228 nM.

Compound `O=C(O)c1ccc2nc(CN3CCC(c4cccc(C5CCc6ccccc6C5)n4)CC3)n(C[C@@H]3CCO3)c2c1` (stereo partly drawn) [Compound 12, 1-((S)-oxetan-2-ylmethyl)-2-((4-(6-(1,2,3,4-tetrahydronaphthalen-2-yl)pyridin-2-yl)piperidin-1-yl)methyl)-1H-benzo[d]imidazole-6-carboxylic acid] had an EC50 of 124 nM.

`O=C(O)c1ccc2nc(CN3CCN(c4cccc(OCC5CC(F)(F)C5)n4)CC3)n(C[C@@H]3CCO3)c2c1` [Compound 50, (S)-2-((4-(6-((3,3-difluorocyclobutyl)methoxy)pyridin-2-yl)piperazin-1-yl)methyl)-1-(oxetan-2-ylmethyl)-1H-benzo[d]imidazole-6-carboxylic acid] returned an EC50 of 202 nM.

Compound `O=C(O)c1ccc2nc3n(c2c1)CCOC[C@H]3N1CCC(c2cccc(OCc3ccccc3)n2)CC1` [Compound 93, (S)-5-(4-(6-(benzyloxy)pyridin-2-yl)piperidin-1-yl)-1,2,4,5-tetrahydrobenzo[4,5]imidazo [1,2-d][1,4]oxazepine-9-carboxylic acid] returned an EC50 of over 500 nM.

`N#Cc1cccc2c1CCN(c1cccc(N3CCN(Cc4nc5ccc(C(=O)O)cc5n4C[C@@H]4CCO4)CC3)n1)C2` [Compound 120, (S)-2-((4-(6-(5-cyano-3,4-dihydroisoquinolin-2(1H)-yl)pyridin-2-yl)piperazin-1-yl)methyl)-1-(oxetan-2-ylmethyl)-1H-benzo[d]imidazole-6-carboxylic acid] showed an EC50 of 43.5 nM.

With `O=C(O)c1ccc2nc(CN3CC[C@@]4(c5cccc(OCc6ccc(Cl)cc6Cl)n5)C[C@H]4C3)n(C[C@@H]3CCO3)c2c1` (single isomer, unassigned) [Compound 126-P1], the EC50 was determined as 0.174 nM.

The compound `C[C@@H](Oc1cccc(N2CCN(Cc3nc4ccc(C(=O)O)cc4n3C[C@@H]3CCO3)CC2)n1)c1nc2ccccc2s1` [Compound 116, 2-((4-(6-((R)-1-(benzo[d]thiazol-2-yl)ethoxy)pyridin-2-yl)piperazin-1-yl)methyl)-1-(((S)-oxetan-2-yl)methyl)-1H-benzo[d]imidazole-6-carboxylic acid] showed an EC50 of 4.27 nM.

`O=C(O)c1ccc2nc(CN3CCN(c4cccc(OCC5CCC(F)(F)CC5)n4)CC3)n(C[C@@H]3CCO3)c2c1` [Compound 36, (S)-2-((4-(6-((4,4-difluorocyclohexyl)methoxy)pyridin-2-yl)piperazin-1-yl)methyl)-1-(oxetan-2-ylmethyl)-1H-benzo[d]imidazole-6-carboxylic acid] came in with an EC50 of 36.4 nM.

`O=C(O)c1ccc2nc(CN3CCN(c4cccc(OCC5COC5)n4)CC3)n(C[C@@H]3CCO3)c2c1` [Compound 47, (S)-1-(oxetan-2-ylmethyl)-2-((4-(6-(oxetan-3-ylmethoxy)pyridin-2-yl)piperazin-1-yl)methyl)-1H-benzo[d]imidazole-6-carboxylic acid] showed an EC50 of over 500 nM.

The same assay, now with this note: Table 3; cAMP Hunter CHO-K1 GLP1R Gs cells; percent activity normalized to Exendin-4.
`N#Cc1ccc(CN2CCCc3ccc(N4CCN(Cc5nc6ccc(C(=O)O)cc6n5C[C@@H]5CCO5)CC4)nc32)c(F)c1` [Compound 148, (S)-2-((4-(8-(4-cyano-2-fluorobenzyl)-5,67,8-tetrahydro-1,8-naphthyridin-2-yl)piperazin-1-yl)methyl)-1-(oxetan-2-ylmethyl)-1H-benzo[d]imidazole-6-carboxylic acid] yielded an EC50 of over 500 nM.

`O=C(O)c1ccc2nc(CN3CCC(n4cc5cccc(Oc6ccccc6)c5n4)CC3)n(C[C@@H]3CCO3)c2c1` [Compound 159, (S)-1-(oxetan-2-ylmethyl)-2-((4-(7-phenoxy-2H-indazol-2-yl)piperidin-1-yl)methyl)-1H-benzo[d]imidazole-6-carboxylic acid] gave an EC50 of over 500 nM.

Compound `N#Cc1ccc([C@H]2CCc3c(cccc3N3CCN(Cc4nc5ccc(C(=O)O)cc5n4C[C@@H]4CCO4)CC3)O2)c(F)c1` (single isomer, unassigned) [Compound 151-P1] showed an EC50 of 261 nM.

On to `O=C(O)c1ccc2nc(CN3CCN(c4nc(OCc5ccccc5)cc5ccccc45)CC3)n(C[C@@H]3CCO3)c2c1` [Compound 157, (S)-2-((4-(3-(benzyloxy)isoquinolin-1-yl)piperazin-1-yl)methyl)-1-(oxetan-2-ylmethyl)-1H-benzo[d]imidazole-6-carboxylic acid], for which the EC50 was over 500 nM.

In turn, `O=C(O)c1ccc2nc(CN3CCC(c4cccc(OC5CCCc6ccccc65)n4)CC3)n(C[C@@H]3CCO3)c2c1` (stereo partly drawn) [Compound 161, 1-(((S)-oxetan-2-yl)methyl)-2-((4-(6-((1,2,3,4-tetrahydronaphthalen-1-yl)oxy)pyridin-2-yl)piperidin-1-yl)methyl)-1H-benzo[d]imidazole-6-carboxylic acid] registered an EC50 of 304 nM.

Compound `O=C(O)c1ccc2nc(CN3CCN(c4cccc5c4CCN(c4ccccc4)C5)CC3)n(C[C@@H]3CCO3)c2c1` [Compound 155, (S)-1-(oxetan-2-ylmethyl)-2-((4-(2-phenyl-1,2,3,4-tetrahydroisoquinolin-5-yl)piperazin-1-yl)methyl)-1H-benzo[d]imidazole-6-carboxylic acid] gave an EC50 of over 500 nM.

Turning to `O=C(O)c1ccc2nc(CN3CCN(c4ccc5c(n4)N(Cc4ccccc4)CCO5)CC3)n(C[C@@H]3CCO3)c2c1` [Compound 149, (S)-2-((4-(4-benzyl-3,4-dihydro-2H-pyrido[3,2-b][1,4]oxazin-6-yl)piperazin-1-yl)methyl)-1-(oxetan-2-ylmethyl)-1H-benzo[d]imidazole-6-carboxylic acid/], the EC50 was over 500 nM.

Source of the values: patent US20220089578A1, “COMPOUNDS AS GLP-1R AGONISTS” (Terns Pharmaceuticals, Inc., priority 2020, published 2022).
